From patent US20190350907A1, “METHODS AND PHARMACEUTICAL COMPOSITIONS FOR REDUCING CD95- MEDIATED CELL MOTILITY” (INSERM (INSTITUT NATIONAL DE LA SANTÉ ET DE LA RECHERCHE …, priority 2017, published 2019)
Like-named read-outs stand apart in the source and are kept apart here.

Tests used:
activated PBLs = assay: CD95-mediated cell migration / endothelial transmigration of activated PBLs (Boyden chamber); format: cell-based, human; details: result in words
Experimental: FIG. 3. Drugs inhibit CD95-mediated Ca′ response and cell migration. A. Activated PBLs were loaded with FuraPE3-AM (1 μM) and pre-treated for 1 h with non-toxic concentrations of indicated compounds. T-cells were then stimulated with cl-CD95L (100 ng/mL; arrow). Ratio values (R) were normalized to pre-stimulated values (R0) to yield R/R0 values. Data represent means±the SD. B. Left panel: using Boyden chamber assay, cell migration of parental H9 cells and their counterpart lacking CD95 (CD95-KO) was assessed. Right panel: activated PBLs were pre-incubated in the presence or absence of the indicated drugs for 1 hour using non-toxic concentration and the CD95-mediated cell migration was assessed by Boyden chambers. C. Th17 cells were sorted from blood of healthy donors (peripheral blood mononuclear cell). FACS analyses showing the efficiency of Th17 (CCR6^+ CXCR3^−) cell sorting from healthy donors PBMCs. D. Th17 cells were pre-incubated in the presence or absence of the indicated drugs for 1 hour using non-toxic concentration and cell migration was assessed by Boyden chambers. After membrane hydration of Boyden chambers (Millipore, Molsheim, France) containing 8 μm pore membranes, 10^5 cells were added to the top chamber. The bottom chamber was filled with low serum (1%)-containing medium in the presence or absence of cl-CD95L (100 ng/ml). Cells were incubated for 24 h. To quantify invasion, cells were fixed with methanol and stained with Giemsa. Stained cells were then removed from the top-side of the membrane using a cotton-tipped swab and five representative pictures for each insert were taken of the invading cells from the reverse side. For each experiment, invading cells were lysed and absorbance at 560 nm was measured. Membranes (3 μm pore size) of a Boyden chamber were hydrated in sterile D-PBS (Millipore, Molsheim, France). Thereafter, activated T-lymphocytes (10^6) were added to the top chamber on a confluent monolayer of HUVEC in a low serum (1%)-containing medium. The bottom chamber was filled with low serum (1%)-containing medium in presence or absence of 100 ng/ml of cl-CD95L. In experiments using human sera, 500 μl of serum from either healthy donors or SLE patients was added to the lower chamber. Cells were cultured for 24 h at 37° C. in a 5% CO2, humidified incubator. Transmigrated cells were counted in the lower reservoir by flow cytometry using a standard of 2.5×10^4 fluorescent beads (Flow-count, Beckman Coulter).

CD95/PLCγ1 interaction = target: T1, CD95/PLCγ1 interaction (Homo sapiens, UniProt P19174); assay: Renilla luciferase protein-fragment complementation assay (PCA), CD95-CID/PLCγ1-SH3; format: cell-based; details: for effect on interaction of CD95 with PLCγ1: result in words
T1 construct: The PLCγ1-SH3 domain (aa 790-851) (C); expressed in transfected cells; host or cells: HEK293T
T1 sequence (P19174 790-851): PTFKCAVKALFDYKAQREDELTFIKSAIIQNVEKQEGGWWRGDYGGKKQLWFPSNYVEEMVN
Experimental: FIG. 1. […] A. Schematic representation of the protein-fragment complementation assay used with CD95-CID or -DD fused to F2 and PLCγ1-SH3 or FADD-DD fused to F1 to identify inhibitors from the Prestwick library. The Renilla luciferase enzyme was divided into amino-terminal and carboxy-terminal fragments (yellow domains) and fused to the indicated domains. B. Compounds from the Prestwick library were tested against CD95/PLCγ1 or CD95/FADD PCA. […] Inhibition of CD95/FADD interaction is also assessed.
Light emission indicates refolding of the luciferase and reconstitution of enzyme activity through protein/protein interactions. […] Data represent means±SD of three independent experiments. […] Then, the indicated peptides fused with or without the cell-penetrating domain TAT were incubated at the indicated concentrations for 4 hrs and luminescence was assessed. Data represent means±SD of three independent experiments. […].
HEK293T cells were electroporated with 5 μg of DNA using BTM-830 electroporation generator (BTX Instrument Division, Harvard Apparatus) with 10 μg of DNA. Transfected cells were cultured for 24 hrs prior to protein complementation assay analyses as previously described (17). Briefly, transfected cells (10^6) were washed, resuspended in 100 μl PBS and deposited in OptiPlate-96 (PerkinElmer, Waltham, Mass., USA). Coelenterazine-h (5 μM, Sigma) was injected to each well and renilla luciferase activity was monitored for the first 10 seconds using Infinite200Pro (Tecan, Männedorf, Switzerland).
A peptide consisting of the cell-penetrating domain of TAT fused to CID (TAT-CID) binds the SH3 domain of PLCγ1 and thereby, prevents PLCγ1/CD95 interaction and the subsequent induction of the Ca^2+ response (16). […] Briefly, the Renilla luciferase enzyme was divided into two fragments (F1 and F2 fragments). […] Interaction of CD95 with PLCγ1 or FADD allows the reconstitution of RLuc and subsequent light emission (FIG. 1A). The chemical Prestwick library was screened against these PCAs (FIG. 1B). […] These molecules are designated CID inhibitors or CIDINH.

[1] = tested on: CD95-mediated Ca2+ signaling pathway in Tfh cells; assay: CD95-mediated Ca2+ response in Tfh cells; format: cell-based, human; details: drugs 1 μM for 1 h, s-CD95L 100 ng/mL, Fluo2 LR-AM
[2] = tested on: CD95-mediated Ca2+ signaling pathway in Th17 cells; assay: CD95-mediated Ca2+ response in Th17 cells; format: cell-based, human; details: drugs 1 μM for 1 h, s-CD95L 100 ng/mL, Fluo2 LR-AM
Experimental: A. Activated PBLs were loaded with FuraPE3-AM (1 μM) and pre-treated for 1 h with non-toxic concentrations of indicated compounds. T-cells were then stimulated with thapsigargin (1 μM; arrow). Ratio values (R) were normalized to pre-stimulated values (R0) to yield R/R0 values. Data represent means±the SD. B. Th17 cells were sorted from healthy donors and loaded with FuraPE3-AM (1 μM). Th17 cells were pre-treated for 1 h with non-toxic concentrations of ritonavir or diflunisal (1 μM). T-cells were then stimulated with cl-CD95L (100 ng/mL; arrow). Ratio values (R) were normalized to pre-stimulated values (R0) to yield R/R0 values. Data represent means±the SD.
Human PBLs were sorted using flow cytometry cell sorting to isolate Th17 (A) according to their phenotype (CD3+CD4+CXCR5−CCR6+CXCR3−CD45RA−) and Tfh (B) (CD4+CXCR5+ICOS+PD−1+CD45RA−). Cells were pre-incubated with Indicated drugs (1 μM) for 1 h and then stimulated with 100 ng/mL of s-CD95L. [Ca2+]CYT was assessed in Fluo2 LR-AM (3 μM)-loaded cells. Data represent means±the SD of 3 independent experiments.
Peripheral blood mononuclear cells (PBMC) were isolated from buffy-coat by density gradient using lymphocyte separation medium (Eurobio, Les Ulis, France). PBMCs were then subjected to selection using a cocktail of antibody-coated magnetic beads: CCR6^+ CXCR3^−CD4^+ cells (Th17 cells) were sorted with Human Th17 Enrichment kit (STEMCELL Technologies, Grenoble, France). Cell sorting efficiency was evaluated by FACS.
T-cells were loaded with Fura-PE3-AM (1 μM) at room temperature for 30 min in Hank's Balanced Salt Solution (HBSS). After washing, the cells were incubated for 15 min in the absence of Fura-PE3-AM to complete de-esterification of the dye. Cells were placed in a temperature controlled chamber (37° C.) of an inverted epifluorescence microscope (Olympus IX70) equipped with an x40 UApo/340-1.15 W water-immersion objective (Olympus), and fluorescence micrograph images were captured at 510 nm and 12-bit resolution by a fast-scan camera (CoolSNAP fx Monochrome, Photometrics). To minimize UV light exposure, a 4×4 binning function was used. Fura-PE3 was alternately excited at 340 and 380 nm, and the ratios of the resulting images (emission filter at 520 nm) were produced at constant intervals (10 seconds). The Fura-PE3 ratio (Fratio 340/380) images were analyzed offline with Universal Imaging software, including Metafluor and Metamorph. Fratio reflects the intracellular Ca^2+ concentration changes. Each experiment was repeated at least 3 times, and the average of more than 20 single-cell traces per experiment was analyzed.

[3] = target: T2, PLCγ1-SH3 domain (aa 790-851) fused to F1 fragment of Renilla luciferase, P19174; assay: Renilla luciferase protein-fragment complementation assay in non-permeabilized HEK cells (CID-CD95-F2 / PLCγ1-SH3-F1), peptide 4 h; displaces CID-CD95
T2 chain: T1 sequence (P19174 790-851)

[4] = target: T2, PLCγ1-SH3 domain (aa 790-851) fused to …

Molecule | effect on endothelial transmigration of PBLs (activated PBLs) | effect on interaction of CD95 with PLCγ1 (CD95/PLCγ1 interaction) | effect on CD95-mediated Ca2+ signaling pathway in Tfh cells [1] | effect on CD95-mediated Ca2+ signaling pathway in Th17 cells [2] | further results
COc1ccc(-c2cc(=S)ss2)cc1 [anethole, 5-(4-methoxyphenyl)dithiole-3-thione] | inhibited | efficiently prevented | – | – | –
COC(=O)N[C@H](C(=O)N[C@@H](Cc1ccccc1)[C@@H](O)CN(Cc1ccc(-c2ccccn2)cc1)NC(=O)[C@@H](NC(=O)OC)C(C)(C)C)C(C)(C)C [atazanavir] | – | – | efficiently abrogated | efficiently abrogated | –
CC(C)CN(C[C@@H](O)[C@H](Cc1ccccc1)NC(=O)O[C@H]1CO[C@H]2OCC[C@H]21)S(=O)(=O)c1ccc(N)cc1 [darunavir] | – | – | efficiently abrogated | efficiently abrogated | –
COc1cccc2c1C(=O)c1c(O)c3c(c(O)c1C2=O)C[C@@](O)(C(C)=O)C[C@@H]3O[C@H]1C[C@H](N)[C@H](O)[C@H](C)O1 [daunorubicin, (7S,9S)-9-acetyl-7-[(2R,4S,5S,6S)-4-amino-5-hydroxy-6-methyloxan-2-yl]oxy-6,9,11-trihydroxy-4-methoxy-8,10-dihydro-7H-tetracene-5,12-dione] | inhibited | efficiently prevented | – | – | –
Cc1cccc(C)c1OCC(=O)N[C@@H](Cc1ccccc1)[C@@H](O)C[C@H](Cc1ccccc1)NC(=O)[C@H](C(C)C)N1CCCNC1=O [lopinavir] | – | – | efficiently abrogated | efficiently abrogated | –
CN(CCOc1ccc(CC2SC(=O)NC2=O)cc1)c1ccccn1 (stereo not shown) [rosiglitazone, 5-[[4-[2-[methyl(pyridin-2-yl)amino]ethoxy]phenyl]methyl]-1,3-thiazolidine-2,4-dione] | inhibited | efficiently prevented | – | – | –
TAT-minCID: heptapeptide minCID (TCRKHRK, SEQ ID NO:1) fused with the cell-penetrating domain TAT (not fully specified; chains of the parent or of the whole protein) | – | – | – | – | IC50 (CD95/PLCγ1 interaction; PCA in HEK cells, peptides incubated for 4 hours, read-out: IC50, disruption of CD95/PLCγ1 interaction by peptides): 11.5 µM
TCRKHRK (modifications not checked) [minCID (minimal CID, amino acids 182 to 188 of CD95, TCRKHRK)] | – | – | – | – | IC50 [3]: 35.5 µM
TCRKHRK (modifications not checked) [TAT-minCID (cell-penetrating domain TAT fused to minCID, TCRKHRK)] | – | – | – | – | IC50 [4]: 11.5 µM
KRKEVQKTCRKHRKENQGSHESPTLNPETVAINLSD (modifications not checked) | – | – | – | – | IC50 [4]: 10.8 µM
